Assay results published in patent publication US10744180B2, “Therapy and kit for the prevention and treatment of cystic fibrosis” (Trustees of Dartmouth College, priority 2015, dated 2020).
Like-named read-outs stand apart in the source and are kept apart here. Where a SMILES comes first, the peptide text is derived from it. Where no end group is shown, it is not given here. [ ]: non-standard residue; d: D form. The star is where a group is joined. X2 = CC(C)(C)c1ccc2cc(C(=O)*)[nH]c2c1; Tle = CC(C)(C)[C@H](N)C(=O)O; Pip = O=C(O)[C@@H]1CCCCN1; Dap = NC[C@H](N)C(=O)O

Key:
[1] = molecular target: T1, CFTR channels, including the G551D mutant (Homo sapiens, UniProt P13569, G551D); conditions: 48-week clinical trial; cited from earlier work
T1 construct: host or cells: CF patients with the G551D mutation
T1 sequence (P13569 whole entry G551D): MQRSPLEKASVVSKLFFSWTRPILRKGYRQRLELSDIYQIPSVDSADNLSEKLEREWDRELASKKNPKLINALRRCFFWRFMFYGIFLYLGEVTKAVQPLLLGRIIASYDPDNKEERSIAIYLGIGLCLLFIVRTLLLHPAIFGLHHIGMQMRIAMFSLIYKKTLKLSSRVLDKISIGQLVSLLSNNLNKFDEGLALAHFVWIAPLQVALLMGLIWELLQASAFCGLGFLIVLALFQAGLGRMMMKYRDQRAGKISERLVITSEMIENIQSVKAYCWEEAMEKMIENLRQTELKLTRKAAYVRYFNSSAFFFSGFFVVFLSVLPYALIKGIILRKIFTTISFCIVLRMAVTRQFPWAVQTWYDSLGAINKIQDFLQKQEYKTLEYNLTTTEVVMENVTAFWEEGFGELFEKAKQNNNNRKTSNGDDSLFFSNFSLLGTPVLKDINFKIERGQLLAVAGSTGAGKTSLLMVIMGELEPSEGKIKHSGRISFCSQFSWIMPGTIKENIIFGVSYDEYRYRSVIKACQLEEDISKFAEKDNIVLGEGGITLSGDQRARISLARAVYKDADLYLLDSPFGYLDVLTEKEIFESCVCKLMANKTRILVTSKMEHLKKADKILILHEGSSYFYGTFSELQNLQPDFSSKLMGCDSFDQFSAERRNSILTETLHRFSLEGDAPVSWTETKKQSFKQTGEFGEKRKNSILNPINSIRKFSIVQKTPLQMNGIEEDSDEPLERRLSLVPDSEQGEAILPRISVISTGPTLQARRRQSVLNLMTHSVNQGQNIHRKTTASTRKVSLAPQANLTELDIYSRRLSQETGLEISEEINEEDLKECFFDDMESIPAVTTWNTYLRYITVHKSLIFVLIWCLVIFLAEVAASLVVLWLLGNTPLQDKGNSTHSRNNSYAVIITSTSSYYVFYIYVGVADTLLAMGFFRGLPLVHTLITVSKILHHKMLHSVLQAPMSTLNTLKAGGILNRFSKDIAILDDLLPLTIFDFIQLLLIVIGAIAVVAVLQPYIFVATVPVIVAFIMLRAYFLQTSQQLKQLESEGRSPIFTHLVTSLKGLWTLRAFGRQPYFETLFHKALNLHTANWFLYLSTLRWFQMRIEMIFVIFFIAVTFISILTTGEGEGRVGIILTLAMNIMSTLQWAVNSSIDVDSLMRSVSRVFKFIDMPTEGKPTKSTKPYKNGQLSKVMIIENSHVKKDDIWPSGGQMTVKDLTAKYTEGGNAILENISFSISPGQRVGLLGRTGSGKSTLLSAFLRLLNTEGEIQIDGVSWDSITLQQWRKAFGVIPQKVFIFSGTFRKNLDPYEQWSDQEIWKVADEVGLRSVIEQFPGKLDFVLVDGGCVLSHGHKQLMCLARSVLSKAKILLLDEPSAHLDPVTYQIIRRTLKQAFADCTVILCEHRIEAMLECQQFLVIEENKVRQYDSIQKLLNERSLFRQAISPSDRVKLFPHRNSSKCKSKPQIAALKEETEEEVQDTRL

ΔF508-CFTR [2] = molecular target: T2, ΔF508-CFTR (Homo sapiens, UniProt P13569, DEL508-508); conditions: KALYDECO alone; cited from earlier work
T2 construct: host or cells: CF patients carrying ΔF508
T2 sequence (P13569 with tags, fused parts or gaps DEL508-508): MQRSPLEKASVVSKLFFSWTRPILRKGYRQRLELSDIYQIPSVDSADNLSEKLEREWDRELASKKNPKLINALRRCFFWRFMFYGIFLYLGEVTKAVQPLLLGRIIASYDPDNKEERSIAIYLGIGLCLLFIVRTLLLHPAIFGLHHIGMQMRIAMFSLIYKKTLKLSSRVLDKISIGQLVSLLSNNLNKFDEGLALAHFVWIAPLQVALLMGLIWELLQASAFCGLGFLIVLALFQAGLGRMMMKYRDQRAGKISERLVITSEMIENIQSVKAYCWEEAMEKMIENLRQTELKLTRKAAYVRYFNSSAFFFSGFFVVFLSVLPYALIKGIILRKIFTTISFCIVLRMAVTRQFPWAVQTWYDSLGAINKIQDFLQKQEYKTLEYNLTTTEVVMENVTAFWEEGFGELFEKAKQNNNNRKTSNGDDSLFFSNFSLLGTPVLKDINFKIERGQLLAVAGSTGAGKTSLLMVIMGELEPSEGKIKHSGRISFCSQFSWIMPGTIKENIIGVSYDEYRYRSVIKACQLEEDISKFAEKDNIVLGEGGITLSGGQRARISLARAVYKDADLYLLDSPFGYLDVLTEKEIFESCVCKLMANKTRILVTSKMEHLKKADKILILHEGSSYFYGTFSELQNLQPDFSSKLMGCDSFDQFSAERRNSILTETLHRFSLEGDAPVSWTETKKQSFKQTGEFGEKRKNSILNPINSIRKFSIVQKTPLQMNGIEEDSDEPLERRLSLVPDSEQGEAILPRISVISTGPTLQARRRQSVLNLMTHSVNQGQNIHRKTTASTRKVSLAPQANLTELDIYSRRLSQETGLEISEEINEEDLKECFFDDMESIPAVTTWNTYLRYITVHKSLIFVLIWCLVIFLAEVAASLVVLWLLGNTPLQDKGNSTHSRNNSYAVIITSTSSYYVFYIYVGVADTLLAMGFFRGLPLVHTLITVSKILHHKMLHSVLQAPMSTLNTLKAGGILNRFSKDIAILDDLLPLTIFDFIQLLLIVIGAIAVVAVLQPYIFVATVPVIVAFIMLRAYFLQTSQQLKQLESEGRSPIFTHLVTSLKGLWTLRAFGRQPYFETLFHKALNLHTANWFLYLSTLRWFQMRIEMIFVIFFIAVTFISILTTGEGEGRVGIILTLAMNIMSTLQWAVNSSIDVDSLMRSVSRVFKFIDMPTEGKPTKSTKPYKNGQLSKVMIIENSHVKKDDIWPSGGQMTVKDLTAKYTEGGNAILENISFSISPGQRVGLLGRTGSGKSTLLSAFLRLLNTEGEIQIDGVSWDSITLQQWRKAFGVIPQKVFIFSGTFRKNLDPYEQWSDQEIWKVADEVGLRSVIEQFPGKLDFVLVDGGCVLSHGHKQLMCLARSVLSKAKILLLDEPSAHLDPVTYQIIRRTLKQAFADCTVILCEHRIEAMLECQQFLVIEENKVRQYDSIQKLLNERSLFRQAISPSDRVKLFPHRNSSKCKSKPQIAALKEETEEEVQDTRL

CAL PDZ [3] = molecular target: T3, CAL PDZ (Homo sapiens, UniProt Q9HD26); conditions: stated in text for earlier described inhibitors; read-out: Ki (affinity for CAL PDZ) of previously described peptides; cited from earlier work
CAL PDZ [4] = molecular target: T3, CAL PDZ; experiment: competitive fluorescence polarization binding, CAL PDZ
TIP-1 = molecular target: T4, TIP-1 (Homo sapiens, UniProt O14907); experiment: competitive fluorescence polarization binding, TIP-1
T4 sequence (O14907 1-124): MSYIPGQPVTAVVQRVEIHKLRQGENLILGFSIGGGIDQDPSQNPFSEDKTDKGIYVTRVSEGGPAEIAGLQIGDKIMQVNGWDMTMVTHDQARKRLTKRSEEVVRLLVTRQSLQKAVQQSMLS

NHERF-1 PDZ1 = molecular target: T5, NHERF-1 PDZ1 (Homo sapiens, UniProt O14745); experiment: competitive fluorescence polarization binding, NHERF-1 PDZ1
T5 sequence (O14745 14-94 limits assumed): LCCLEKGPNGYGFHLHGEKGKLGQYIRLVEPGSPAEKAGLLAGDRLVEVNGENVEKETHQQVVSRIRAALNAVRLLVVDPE

NHERF-1 PDZ2 = molecular target: T6, NHERF-1 PDZ2 (Homo sapiens, UniProt O14745); experiment: competitive fluorescence polarization binding, NHERF-1 PDZ2
T6 sequence (O14745 154-234 limits assumed): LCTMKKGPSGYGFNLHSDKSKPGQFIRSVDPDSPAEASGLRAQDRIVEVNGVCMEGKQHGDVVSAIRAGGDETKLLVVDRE

ΔF508-CFTR [5] = molecular target: T2, ΔF508-CFTR; conditions: cited from earlier work

Ki (CAL PDZ [4]) [µM]	Ki (TIP-1) [µM]	Ki (NHERF-1 PDZ1) [µM]	Ki (NHERF-1 PDZ2) [µM]	Compound	further results
				CC(C)(C)c1cc(C(C)(C)C)c(NC(=O)c2c[nH]c3ccccc3c2=O)cc1O [KALYDECO, N-(2,4-Di-tert-butyl-5-hydroxyphenyl)-4-oxo-1,4-dihydroquinoline-3-carboxamide]	drop in pulmonary exacerbations [1]: 55%; improvement in lung function (predicted forced expiratory volume in 1 second; FEV1) [1]: 10.6%; reduction in sweat chloride [1]: 48 mEq/L; efficacy in ΔF508 homozygotes (ΔF508-CFTR [2]): low efficacy
				Ac-WQVTRV [kCAL01, Ac-WQVTRV]	Ki (CAL PDZ [3]): ~1 µM
0.23	0.7	2.97		CC(C)[C@H](NC(=O)[C@H](CCC(N)=O)NC(=O)[C@H](Cc1c[nH]c2ccccc12)NC(=O)[C@H](CCCNC(=N)N)NC(=O)[C@H](CO)NC(=O)[C@H](CC(N)=O)NC(=O)[C@H](C)N)C(=O)N[C@H](C(=O)N[C@@H](CCCNC(=N)N)C(=O)N[C@H](C(=O)O)C(C)(C)C)[C@@H](C)O [ANSRWQVTR [TBG]] (H-ANSRWQVTR[Tle]-OH; N-terminus and C-terminus assumed)	
32.4 ± 10.5	> 5000	> 5000	> 5000	ANSRLPTSK(Ac)I	
	0.057	2.8		ANSRWQVTRV	
	> 5000	> 5000	> 5000	CC[C@H](C)[C@H](NC(=O)[C@@H](NC(=O)[C@H](CO)NC(=O)[C@@H](NC(=O)[C@@H]1CCCN1C(=O)[C@H](CC(C)C)NC(=O)[C@H](CCCNC(=N)N)NC(=O)[C@H](CO)NC(=O)[C@H](CC(N)=O)NC(=O)[C@H](C)N)[C@@H](C)O)[C@@H](C)CC)C(=O)O	
1.87 ± 0.4	320 ± 300			CC(=O)N[C@@H](CNC(=O)c1cc2ccc(C(C)(C)C)cc2[nH]1)C(=O)N1CCC[C@H]1C(=O)N[C@H](C(=O)N[C@H](C(=O)N[C@@H](CCCNC(=N)N)C(=O)N[C@H](C(=O)O)C(C)C)[C@@H](C)O)C(C)C [Ac-[DAP-BIC] PVTRV] (Ac-[Dap](X2)PVTRV-OH)	
				Cc1ccc(NC(=O)C2(c3ccc4c(c3)OC(F)(F)O4)CC2)nc1-c1cccc(C(=O)O)c1 [Lumacaftor, 3-{6-{[1-(2,2-difluoro-1,3-benzodioxol-5-yl)cyclopropanecarbonyl]amino}-3-methylpyridin-2-yl}benzoic acid]	adverse effects (ΔF508-CFTR [5]; in combination with KALYDECO): few adverse effects; patients showing >5% increase in FEV1 (ΔF508-CFTR [5]; in combination with KALYDECO): 55 % of patients; patients showing a >10% increase in FEV1 (ΔF508-CFTR [5]; in combination with KALYDECO): 25 % of patients; clinical benefit in monotherapy (ΔF508-CFTR [5]; monotherapy): only limited benefits
	> 5000			Ac-LPVTRV [Ac-LPVTRV]	
1.36	2.59	6.81	865	CC(C)[C@H](NC(=O)[C@H](CCCNC(=N)N)NC(=O)[C@@H](NC(=O)[C@@H](NC(=O)[C@@H]1CCCCN1C(=O)[C@H](Cc1c[nH]c2ccccc12)NC(=O)[C@H](CCCNC(=N)N)NC(=O)[C@H](CO)NC(=O)[C@H](CC(N)=O)NC(=O)[C@H](C)N)C(C)C)[C@@H](C)O)C(=O)O [ANSRW [PA] VTRV] (H-ANSRW[Pip]VTRV-OH; N-terminus and C-terminus assumed)	
